Data published in ChEMBL document CHEMBL1157709, “Enhancement of EGFR tyrosine kinase inhibition by C-C multiple bonds-containing anilinoquinazolines” (Bioorg Med Chem, 2010).
Active and inactive are the calls of the source. The rule behind the calls is not given here.

Columns and labels:
[1] = biological target: T1, Epidermal growth factor receptor (Homo sapiens, UniProt P00533); assay: Inhibition of recombinant EGFR by ELISA
[2] = biological target: T1, Epidermal growth factor receptor; assay: Reversible inhibitory activity of EGF-induced EGFR phosphorylation in human A431 cells at 10 to 100 nM by immunoblot analysis; conditions: A-431
A-431 [3] = assay: cells; type: functional; conditions: Homo sapiens, A-431, 72 h
Description: Growth inhibition of human A431 cells after 72 hrs by MTT assay

A-431 [4] = assay: Cell cycle arrest in human A431 cells by accumulation at G1 phase at 1 uM after 24 hrs by propidium iodide staining-based flow cytometry (reference value: 39.8+/-0.2%); type: functional
A-431 [5] = assay: Cell cycle arrest in human A431 cells by accumulation at G1 phase at 3 uM after 24 hrs by propidium iodide staining-based flow cytometry (reference value: 39.8+/-0.2%); type: functional
A-431 [6] = assay: Cell cycle arrest in human A431 cells by accumulation at S phase at 1 uM after 24 hrs by propidium iodide staining-based flow cytometry (reference value: 48.5+/-4.2%); type: functional
A-431 [7] = assay: Cell cycle arrest in human A431 cells by accumulation at S phase at 3 uM after 24 hrs by propidium iodide staining-based flow cytometry (reference value: 48.5+/-4.2%); type: functional
A-431 [8] = assay: Cell cycle arrest in human A431 cells by accumulation at G2/M phase at 1 uM after 24 hrs by propidium iodide staining-based flow cytometry (reference value: 11.1+/-3.1%); type: functional
A-431 [9] = assay: Cell cycle arrest in human A431 cells by accumulation at G2/M phase at 3 uM after 24 hrs by propidium iodide staining-based flow cytometry (reference value: 11.1+/-3.1%); type: functional
A-431 [10] = assay: Induction of apoptosis in human A431 cells assessed as pre-necrotic cells level at 3 uM after 12 hrs by annexin V/propidium iodide staining-based flow cytometry (Rvb=0.9+/-0.1%); type: functional
A-431 [11] = assay: Induction of apoptosis in human A431 cells assessed as late apoptotic/necrotic cells level at 3 uM after 12 hrs by annexin V/propidium iodide staining-based flow cytometry (Rvb=0.6+/-0.1%); type: functional
A-431 [12] = assay: Induction of apoptosis in human A431 cells assessed as viable cells level at 3 uM after 12 hrs by annexin V/propidium iodide staining-based flow cytometry (reference value: 95.4+/-0.5%); type: functional
A-431 [13] = assay: Induction of apoptosis in human A431 cells assessed as early apoptotic cells level at 3 uM after 12 hrs by annexin V/propidium iodide staining-based flow cytometry (Rvb=3.1+/-0.5%); type: functional

T1 sequence (P00533 whole entry): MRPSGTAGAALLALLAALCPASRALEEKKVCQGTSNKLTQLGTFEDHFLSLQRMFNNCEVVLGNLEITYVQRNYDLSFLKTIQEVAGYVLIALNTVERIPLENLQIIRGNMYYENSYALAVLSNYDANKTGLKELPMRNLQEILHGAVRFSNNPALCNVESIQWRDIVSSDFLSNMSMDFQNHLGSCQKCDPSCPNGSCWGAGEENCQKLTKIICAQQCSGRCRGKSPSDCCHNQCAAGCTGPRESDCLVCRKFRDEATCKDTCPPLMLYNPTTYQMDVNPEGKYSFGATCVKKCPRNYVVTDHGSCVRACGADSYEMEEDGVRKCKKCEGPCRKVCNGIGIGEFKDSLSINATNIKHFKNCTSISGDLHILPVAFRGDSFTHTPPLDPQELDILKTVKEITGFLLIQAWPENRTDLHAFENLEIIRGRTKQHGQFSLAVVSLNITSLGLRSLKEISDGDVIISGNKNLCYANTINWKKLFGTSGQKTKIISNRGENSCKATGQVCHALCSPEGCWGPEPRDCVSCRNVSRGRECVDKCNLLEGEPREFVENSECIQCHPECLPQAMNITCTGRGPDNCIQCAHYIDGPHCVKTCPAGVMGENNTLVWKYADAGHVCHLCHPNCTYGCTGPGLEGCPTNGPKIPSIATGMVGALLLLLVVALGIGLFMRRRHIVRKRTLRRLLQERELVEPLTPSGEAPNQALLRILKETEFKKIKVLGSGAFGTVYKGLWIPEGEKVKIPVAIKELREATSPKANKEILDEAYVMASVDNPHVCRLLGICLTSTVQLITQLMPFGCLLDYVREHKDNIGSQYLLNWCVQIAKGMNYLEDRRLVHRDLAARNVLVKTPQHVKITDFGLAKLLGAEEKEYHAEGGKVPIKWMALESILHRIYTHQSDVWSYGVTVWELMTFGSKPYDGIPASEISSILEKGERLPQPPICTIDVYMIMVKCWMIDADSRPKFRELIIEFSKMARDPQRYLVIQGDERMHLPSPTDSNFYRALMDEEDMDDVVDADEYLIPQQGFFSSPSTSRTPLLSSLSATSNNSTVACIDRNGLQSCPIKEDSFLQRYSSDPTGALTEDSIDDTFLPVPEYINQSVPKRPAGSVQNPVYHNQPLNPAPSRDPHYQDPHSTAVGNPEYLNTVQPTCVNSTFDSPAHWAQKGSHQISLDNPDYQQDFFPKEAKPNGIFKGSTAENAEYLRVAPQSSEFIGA

`C#CCOc1cc2c(Nc3ccc(F)c(Cl)c3)ncnc2cc1OC` was tested, and the IC50 [1] was 14.8 nM and the inhibition [2] was “Active”.
`C#CCCCOc1cc2c(Nc3ccc(F)c(Cl)c3)ncnc2cc1OC` was tested, and the IC50 [1] was 2.53 nM, the GI50 (A-431 [3]) was 221 nM and the Activity (A-431 [4]) was 53.5%. For the same compound, the Activity (A-431 [5]) was 65.3%, the Activity (A-431 [6]) was 34.7% and the Activity (A-431 [7]) was 22.1%. It also gave an Activity (A-431 [8]) of 11.7%, an Activity (A-431 [9]) of 12.5% and an Activity (A-431 [10]) of 1.1%. For the same compound, the Activity (A-431 [11]) was 4.2%, the Activity (A-431 [12]) was 81.2% and the Activity (A-431 [13]) was 13.5%.
`C#CCCCOc1cc2c(Nc3cccc(Cl)c3)ncnc2cc1OC` gave an IC50 [1] of 17.7 nM.
`C#CCOc1cc2c(Nc3cccc(Cl)c3)ncnc2cc1OC` was tested, and the IC50 [1] was 25.9 nM and the inhibition [2] was “Active”.
With `C=CCCCCOc1cc2c(Nc3ccc(F)c(Cl)c3)ncnc2cc1OC` the IC50 [1] was 32.6 nM.
`C#Cc1cc2c(Nc3ccc(F)c(Cl)c3)ncnc2cc1OC` gave an IC50 [1] greater than 1000 nM.
Compound `C#CCCCCCOc1cc2c(Nc3ccc(F)c(Cl)c3)ncnc2cc1OC` has an IC50 [1] of 32.7 nM.
Compound `CCCCCCOc1cc2c(Nc3ccc(F)c(Cl)c3)ncnc2cc1OC` has an IC50 [1] of 106 nM.
